Measured values: paper PMC10458458, “Characterization of Anticancer Effects of the Analogs of DJ4, a Novel Selective Inhibitor of ROCK and MRCK Kinases” (Pharmaceuticals, 2023)

Key:
Assay in all cases: NCI-60 screen (SRB)
Format in all cases: cell-based, human
SF-539 = details: 10 µM, 48 h; for percent cell growth: SF-539 (CNS Cancer), negative = cell death vs time zero
Excerpt: (§1) The selected active compounds were screened at NCI, as a part of In Vitro Cell Line Screening Project (IVCLSP), for their effect on cell growth in 60 different cancer cell lines. The 60 human cancer cell line panel included leukemia, melanoma, non-small cell lung cancer, colon, central nervous system (CNS), ovarian, renal, prostate, and breast cancer cell lines. The detailed procedure and applications of NCI-60 cell line screening can be found at https://dtp.cancer.gov/discovery_development/nci-60/default.htm (accessed on 9 January 2023). Briefly, cells were plated in 96-well plates and incubated for 24 h. One set of cells was fixed with trichloroacetic acid at time 0 h (Tz), and SRB (sulphorhodamine B) assays were performed to quantify the cells. The remaining set of cells were treated with 10 µM single concentration of each compound and incubated for 48 h (Te) after which the cells were fixed, and the SRB assays were performed. Data are presented as percent growth relative to the control as 100% according to the following calculations:
(§2) When Te >/= Tz. Growth(%)=Te−Tz/C−Tz∗100 and when Te < Tz. (1) Growth(%)=Te−Tz/Tz∗100
(§3) Values between 0–100 indicate cell growth, zero (0) indicates no cell growth, values < 0 indicate cell death.

CAKI-1 = CAKI-1 (Renal Cancer), 10 µM, 48 h; negative = cell death vs time zero
Excerpt: as §1, §2, §3

EKVX = EKVX (Non-Small Cell Lung Cancer), 10 µM, 48 h; negative = cell death vs time zero
Excerpt: as §1, §2, §3

SW-620 = SW-620 (Colon Cancer), 10 µM, 48 h; negative = cell death vs time zero
Excerpt: as §1, §2, §3

UACC-62 = UACC-62 (Melanoma), 10 µM, 48 h; negative = cell death vs time zero
Excerpt: as §1, §2, §3

CCRF-CEM = CCRF-CEM (Leukemia), 10 µM, 48 h; negative = cell death vs time zero
Excerpt: as §1, §2, §3

SF-295 = SF-295 (CNS Cancer), 10 µM, 48 h; negative = cell death vs time zero
Excerpt: as §1, §2, §3

NCI-H460 = NCI-H460 (Non-Small Cell Lung Cancer), 10 µM, 48 h; negative = cell death vs time zero
Excerpt: as §1, §2, §3

HL-60(TB) = HL-60(TB) (Leukemia), 10 µM, 48 h; negative = cell death vs time zero
Excerpt: as §1, §2, §3

OVCAR-4 = OVCAR-4 (Ovarian Cancer), 10 µM, 48 h; negative = cell death vs time zero
Excerpt: as §1, §2, §3

RPMI-8226 = details: 10 µM, 48 h; for percent cell growth: RPMI-8226 (Leukemia), negative = cell death vs time zero; for increase in cell number: RPMI-8226 (leukemia)
Excerpt: as §1, §2, §3

MCF7 = MCF7 (Breast Cancer), 10 µM, 48 h; negative = cell death vs time zero
Excerpt: as §1, §2, §3

A549/ATCC = A549/ATCC (Non-Small Cell Lung Cancer), 10 µM, 48 h; negative = cell death vs time zero
Excerpt: as §1, §2, §3

SK-MEL-2 = SK-MEL-2 (Melanoma), 10 µM, 48 h; negative = cell death vs time zero
Excerpt: as §1, §2, §3

IGROV1 = IGROV1 (Ovarian Cancer), 10 µM, 48 h; negative = cell death vs time zero
Excerpt: as §1, §2, §3

SNB-75 = details: 10 µM, 48 h; for percent cell growth: SNB-75 (CNS Cancer), negative = cell death vs time zero
Excerpt: as §1, §2, §3

NCI-H226 = NCI-H226 (Non-Small Cell Lung Cancer), 10 µM, 48 h; negative = cell death vs time zero
Excerpt: as §1, §2, §3

U251 = U251 (CNS Cancer), 10 µM, 48 h; negative = cell death vs time zero
Excerpt: as §1, §2, §3

MALME-3M = details: 10 µM, 48 h; for percent cell growth: MALME-3M (Melanoma), negative = cell death vs time zero
Excerpt: as §1, §2, §3

NCI/ADR-RES = details: for percent cell growth: NCI/ADR-RES (Ovarian Cancer), negative = cell death vs time zero; for percent cell growth / increase in cell number: 10 µM, 48 h; for increase in cell number: NCI/ADR-RES (ovarian)
Excerpt: as §1, §2, §3

UACC-257 = UACC-257 (Melanoma), 10 µM, 48 h; negative = cell death vs time zero
Excerpt: as §1, §2, §3

BT-549 = BT-549 (Breast Cancer), 10 µM, 48 h; negative = cell death vs time zero
Excerpt: as §1, §2, §3

786-0 = 786-0 (Renal Cancer), 10 µM, 48 h; negative = cell death vs time zero
Excerpt: as §1, §2, §3

HT29 = HT29 (Colon Cancer), 10 µM, 48 h; negative = cell death vs time zero
Excerpt: as §1, §2, §3

NCI-H522 = NCI-H522 (Non-Small Cell Lung Cancer), 10 µM, 48 h; negative = cell death vs time zero
Excerpt: as §1, §2, §3

KM12 = KM12 (Colon Cancer), 10 µM, 48 h; negative = cell death vs time zero
Excerpt: as §1, §2, §3

T-47D = T-47D (Breast Cancer), 10 µM, 48 h; negative = cell death vs time zero
Excerpt: as §1, §2, §3

| Compound | percent cell growth (SF-539) | percent cell growth (CAKI-1) | percent cell growth (EKVX) | percent cell growth (SW-620) | percent cell growth (UACC-62) | percent cell growth (CCRF-CEM) | percent cell growth (SF-295) | percent cell growth (NCI-H460) | percent cell growth (HL-60(TB)) | percent cell growth (OVCAR-4) | percent cell growth (RPMI-8226) | percent cell growth (MCF7) | percent cell growth (A549/ATCC) | percent cell growth (SK-MEL-2) | percent cell growth (IGROV1) | percent cell growth (SNB-75) | percent cell growth (NCI-H226) | percent cell growth (U251) | percent cell growth (MALME-3M) | percent cell growth (NCI/ADR-RES) | also measured |
| --- | --- | --- | --- | --- | --- | --- | --- | --- | --- | --- | --- | --- | --- | --- | --- | --- | --- | --- | --- | --- | --- |
| C=CC/N=C1\NC(=O)/C(=C\c2c[nH]c3ncccc23)S1 [DJ-Allyl] | −66.2% | 30.2% | 30.5% | 7.4% | 9.8% | 7.1% | 13.0% | 2.2% | −14.5% | 34.7% | 42.7% | 3.5% | 13.2% | −8.4% | 17.0% | −67.3% | 10.7% | 0.8% | 40.2% | 42.1% | reduction in cell number (SF-539; SF-539 (CNS)): 60%; increase in cell number (RPMI-8226): ~ 40%; reduction in cell number (SNB-75; SNB-75 (CNS)): 60%; increase in cell number (MALME-3M; MALME-3M (melanoma)): ~ 40%; increase in cell number (NCI/ADR-RES): ~ 40%; percent cell growth (UACC-257): 9.6%; percent cell growth (BT-549): −29.5%; percent cell growth (786-0): 4.4%; percent cell growth (HT29): 26.4%; percent cell growth (NCI-H522): −5.3%; percent cell growth (KM12): 7.9%; percent cell growth (T-47D): −8.7% |
| Cl.O=C1NC(=NCCc2ccccc2)SC1=Cc1c[nH]c2ncccc12 (mixture of isomers) [DJ4-HCl] | −37.2% | 54.8% | 40.9% | 7.8% | −1.3% | 5.5% | 18.7% | 15.1% | −6.6% | 32.3% | 38.7% | 2.0% | 8.1% | −4.6% | 25.6% | −13.3% | 22.4% | 7.6% | 44.8% | 58.4% | percent cell growth (UACC-257): −1.7%; percent cell growth (BT-549): 5.3%; percent cell growth (786-0): 19.7%; percent cell growth (HT29): 27.8%; percent cell growth (NCI-H522): 4.3%; percent cell growth (KM12): 9.3%; percent cell growth (T-47D): −1.3% |
| CC/N=C1\NC(=O)/C(=C\c2c[nH]c3ncccc23)S1 [DJE4] | −64.2% | 20.6% | 14.1% | 6.5% | −16.0% | 3.0% | 5.0% | 2.4% | −22.4% | 19.5% | 29.1% | 4.0% | 11.1% | −48.7% | 21.7% | −71.8% | 10.8% | −9.5% | −6.2% | 29.7% | increase in cell number (RPMI-8226): 29%; increase in cell number (NCI/ADR-RES): 29%; percent cell growth (UACC-257): −15.9%; percent cell growth (BT-549): −50.4%; percent cell growth (786-0): 3.0%; percent cell growth (HT29): 4.3%; percent cell growth (NCI-H522): −28.6%; percent cell growth (KM12): 6.2%; percent cell growth (T-47D): −9.7% |
| O=C1N/C(=N\CCc2ccccc2)S/C1=C/c1c[nH]c2ncccc12 [DJ4] | 0.4% | 37.4% | 46.0% | 9.9% | −1.4% | 9.9% | 22.6% | 14.1% | 6.8% | 23.8% | 39.2% | 4.0% | 19.1% | 28.8% | 14.0% | −10.9% | 3.3% | 15.8% | 30.6% | 72.9% | IC50 (NCI/ADR-RES; Homo sapiens, NCI/ADR-RES ovarian cancer cell line, NCI-60 screen): > 10 µM; percent cell growth (UACC-257): 14.6%; percent cell growth (BT-549): −7.9%; percent cell growth (786-0): 9.0%; percent cell growth (HT29): 30.6%; percent cell growth (NCI-H522): 26.6%; percent cell growth (KM12): 13.1%; percent cell growth (T-47D): 2.6% |
